Source: patent US20240092846A1, “ENGINEERED CYCLOTIDES WITH POTENT BROAD ANTIMICROBIAL ACTIVITY” (priority 2022, published 2024)
In brackets after ≈: the same amount, converted by molar mass. Several values for one entry are separate records, joined by “and”; a condition that tells them apart may be missing. Equal values may be shown once. Entries after “also recorded” stand apart in the source; their conditions may differ. Read-outs that look alike come from different tables or passages of the source.

Columns and labels:
[1] = test system: human HEK293T and A549 epithelial cells
Description: Cytotoxicity Assay. Cellular toxicities against human HEK293T and A549 epithelial cells were evaluated using Resazurin (Alamarblue™, Thermo Fisher Scientific, Waltham, MA). HEK293T cells were grown in minimum essential media (MEM), while A549 cells were grown in Dulbecco's […] (DMEM) supplemented with 10% fetal bovine serum (FBS) and maintained at 37° C. with 5% CO2. For each cell line, 10^4 cells were added to each well in a 96-well polystyrene plate and incubated for 16 h. Peptides were serially diluted two-fold at concentrations ranging from 100-0.2 μM in medium containing 10% FBS in polystyrene 96 well microtiter plates (Corning) for 16 h. After the incubation period, the cells were washed with PBS and treated with 200 μL/well DMEM media supplemented with 10% FBS containing the peptides at the indicated concentration for 22 h at 37° C. in 5% CO2 and then the medium was replaced with fresh growth medium containing resazurin and incubated for another 2 hours. Cell viability was quantified spectrophotometrically and cells incubated in the absence of peptides and containing 2% Triton X-100 (Sigma) served as controls.

E. coli = conditions: CAMHB
Description: (§1) Broad-spectrum antimicrobial activity was evaluated using the broth microdilution assays against two different pathogens from four different species of bacteria (P. aeruginosa, S. aureus, K. pneumoniae, and E. coli) to determine if the cyclotides retained its potent activity. Broth microdilution assays were utilized to determine the minimum inhibitory concentrations (MICs) of our cyclotides according to the CLSI (formerly NCCLS) guidelines modifications as described below (40). The assay utilized cation-adjusted Mueller-Hinton broth (CAMHB) (Becton, Dickinson and Company, Franklin Lakes, NJ) which was prepared according to the manufacturer's instructions. Cyclotide solutions were prepared as 10× solutions in 0.01% acetic acid. Cyclotide were serially diluted two-fold at concentrations ranging from 25-0.05 μM that contained CAMHB and 0.04% bovine serum albumin (BSA) in polypropylene microtiter plates (Corning, Corning, NY). All bacteria were incubated overnight at 37° C. at 200 rpm in CAMHB and bacterial inoculum was adjusted with additional CAMHB to 0.5 McFarland standard through spectrophotometry at 600 nm. […] Study strains included a total of 20 P. aeruginosa and 20 methicillin resistant S. aureus strains from patients with cystic fibrosis at the Keck Medical Center of the University of Southern California. […] Colistin sulphate (Sigma-Aldrich, St Louis, MO) was used as a reference antibiotic for P. aeruginosa and E. coli, while vancomycin hydrochloride and meropenem trihydrate were used as reference antibiotics for S. aureus and K. pneumoniae.

[2] = test system: clinical isolates of methicillin-resistant S. aureus (MRSA)
Description: as §1

[3] = test system: clinical isolates of P. aeruginosa
Description: as §1

[4] = Maximum tolerated dose (MTD) toxicology study
Description: Colistin was used as a control antibiotic.[28] […] For this purpose, Applicant employed a P. aeruginosa bacterial peritonitis model.[29] This animal model is a well-established acute infection model and is commonly utilized as a common preclinical screening method for new antibiotics.[30] Peritonitis in Balb/c mice (n=10) was established by intraperitoneal injection of 1.5×10^7 colony forming units (CFU) per mouse of P. aeruginosa (Schroeter) Migula (ATCC 27853).
Maximum tolerated dose (MTD) toxicology Studies. The MTD was determined using two different endpoints: weight loss and clinical scoring. Clinical scores were evaluated through activity, appearance and body condition, similar to previously published literature (42). […] Any dose escalation that leads to moderate toxicity (clinical score of >2) was ceased and the dose prior served as the MTD. Mice were monitored every hour for 4 h after injection on the first day. After 24 h, mice were monitored twice daily for another two days until weight and clinical scores were returned to normal. Mice that met the criteria for moribund included a >20% weight loss and clinical score of >3 and were euthanized.

in vitro = conditions: 37° C., LC-MS/MS
Description: This was accomplished by incubating the corresponding peptides in human serum at 37° C. The quantitative analysis of undigested polypeptides was performed using liquid chromatography coupled with tandem mass spectrometry (LC-MS/MS). MCoTI-cyclotides present a very rigid structure,[24] which makes them extremely stable to proteolytic degradation.
Human serum stability. […]. Peptides were dissolved in water at 10 mg/mL concentration. 150 μg of peptides (15 μL) were mixed with 500 μL of human serum and incubated at 37° C. Samples (30 μL) were taken at various time intervals (0-120 h) and serum proteins were precipitated using 180 μL of acetonitrile containing 0.1% TFA. After centrifugation the pellet was dissolved in 8 M GdmCl and the supernatant was lyophilized and re-dissolved in 5% acetonitrile in water containing 0.1% formic acid. Both the supernatant and solubilized pellet fractions were analyzed by HPLC and LC-MS/MS. Each experiment was done in triplicate.

Structure (SMILES): CC[C@H](C)[C@@H]1NC(=O)[C@@H]2CSSC[C@@H]3NC(=O)[C@H](C(C)C)NC(=O)CNC(=O)CNC(=O)[C@H](CCCNC(=N)N)NC(=O)[C@H](CCCNC(=N)N)NC(=O)CNC(=O)[C@H](C(C)C)NC(=O)[C@@H]4CSSC[C@H](NC(=O)[C@H](CC(C)C)NC(=O)[C@H](CCCNC(=N)N)NC(=O)CNC(=O)CNC(=O)[C@H](CO)NC(=O)CNC(=O)[C@H](CO)NC(=O)CNC(=O)[C@@H]5CSSC[C@H](NC(=O)[C@H](CC(=O)O)NC(=O)[C@H](CO)NC(=O)[C@H](CC(=O)O)NC(=O)[C@H](CCCNC(=N)N)NC(=O)[C@H](CCCNC(=N)N)NC(=O)[C@H](CSSC[C@H](NC1=O)C(=O)N[C@@H](CCCNC(=N)N)C(=O)NCC(=O)N[C@@H](CC(N)=O)C(=O)NCC(=O)N[C@@H](Cc1ccc(O)cc1)C(=O)N5)NC(=O)[C@H](CCCNC(=N)N)NC(=O)[C@H](CCC(N)=O)NC(=O)[C@H](CC(C)C)NC(=O)[C@H]([C@@H](C)CC)NC(=O)[C@H](CCCCN)NC(=O)[C@@H]1CCCN1C3=O)C(=O)N1CCC[C@H]1C(=O)NCC(=O)N[C@@H](C)C(=O)N2)C(=O)N[C@@H](Cc1ccc(O)cc1)C(=O)N[C@H]1CSSC[C@H](NC(=O)[C@H](Cc2ccccc2)NC(=O)[C@H](CCCNC(=N)N)NC(=O)[C@H](CCCNC(=N)N)NC(=O)[C@H](CCCNC(=N)N)NC1=O)C(=O)N[C@@H](C(C)C)C(=O)N4 [MCo-PG2]
- cytotoxicity relative to PG-1 [1]: about three times less toxic than PG-1; also recorded: about three times less cytotoxic than PG-1
- MIC (E. coli; E. coli DS377): 0.8 µM (≈ 4.4 µg/mL)
- MIC (E. coli; E. coli K12): 0.8 µM (≈ 4.4 µg/mL)
- S. aureus MIC50 ([2]; MRSA clinical isolates, n=20): 6.25 µM and 6.3 µM
- S. aureus MIC90 ([2]; MRSA clinical isolates, n=20): 12.5 µM
- S. aureus (SA) MIC ([2]; SA strain 766): 6.25 µM
- S. aureus (SA) MIC ([2]; SA strain 4084-1): 12.5 µM
- S. aureus (SA) MIC ([2]; SA strain 4094): 12.5 µM
- S. aureus (SA) MIC ([2]; SA strain 6151-1): 12.5 µM
- S. aureus (SA) MIC ([2]; SA strain 10337-1): 6.25 µM
- S. aureus (SA) MIC ([2]; SA strain 10630-1): 6.25 µM
- S. aureus (SA) MIC ([2]; SA strain 20021-1): 6.25 µM
- S. aureus (SA) MIC ([2]; SA strain 20457-1): 12.5 µM
- S. aureus (SA) MIC ([2]; SA strain 28283): 6.25 µM
- S. aureus (SA) MIC ([2]; SA strain 28310): 6.25 µM
- S. aureus (SA) MIC ([2]; SA strain 28355): 6.25 µM
- S. aureus (SA) MIC ([2]; SA strain 30138-2): 3.125 µM
- S. aureus (SA) MIC ([2]; SA strain 30493-1): 6.25 µM
- S. aureus (SA) MIC ([2]; SA strain 32120-1): 6.25 µM
- S. aureus (SA) MIC ([2]; SA strain 38878-2): 3.125 µM
- S. aureus (SA) MIC ([2]; SA strain 87066): 12.5 µM
- S. aureus (SA) MIC ([2]; SA strain 87112): 12.5 µM
- S. aureus (SA) MIC ([2]; SA strain 87180): 6.25 µM
- S. aureus (SA) MIC ([2]; SA strain 88,531): 12.5 µM
- S. aureus (SA) MIC ([2]; SA strain 902674): 12.5 µM
- P. aeruginosa (PA) MIC ([3]; PA strain 95302): 1.57 µM
- P. aeruginosa (PA) MIC ([3]; PA strain 119133): 3.125 µM
- P. aeruginosa (PA) MIC ([3]; PA strain 167482): 0.4 µM
- P. aeruginosa (PA) MIC ([3]; PA strain 200174): 0.4 µM
- P. aeruginosa (PA) MIC ([3]; PA strain 219686): 3.125 µM
- P. aeruginosa (PA) MIC ([3]; PA strain 254831): 1.5 µM
- P. aeruginosa (PA) MIC ([3]; PA strain 262309): 1.5 µM
- P. aeruginosa (PA) MIC ([3]; PA strain 298473): 0.78 µM
- P. aeruginosa (PA) MIC ([3]; PA strain 466035): 0.4 µM
- P. aeruginosa (PA) MIC ([3]; PA strain 486442): 0.78 µM
- P. aeruginosa (PA) MIC ([3]; PA strain 618154): 0.78 µM
- P. aeruginosa (PA) MIC ([3]; PA strain 678449): 3.125 µM
- P. aeruginosa (PA) MIC ([3]; PA strain 774248): 12.5 µM
- P. aeruginosa (PA) MIC ([3]; PA strain 815159): 0.78 µM
- P. aeruginosa (PA) MIC ([3]; PA strain 844265): 0.78 µM
- P. aeruginosa (PA) MIC ([3]; PA strain 857950): 6.25 µM
- P. aeruginosa (PA) MIC ([3]; PA strain 864684): 3.125 µM
- P. aeruginosa (PA) MIC ([3]; PA strain 894496): 0.78 µM
- P. aeruginosa (PA) MIC ([3]; PA strain 894925): 3.125 µM
- P. aeruginosa (PA) MIC ([3]; PA strain 900719): 3.125 µM
- MTD at 3 days ([4]; Balb/c, mouse, in vivo, ip): 25 mg/kg
- times less toxic than PG-1 in mice ([4]; in vivo toxicity studies): approximately 4
- t1/2 in human serum (in vitro): ~60 h
- half-life at 0.291 mg/mL (in vitro; human, human serum, t1/2 in human serum): 60 ± 6 h
